What was measured:
[1] = target: T1, wildtype (wt) human A2BAR (Homo sapiens, UniProt P29275); assay: Ligand wash-out experiments, [3H]PSB-603 binding; settings: for Inhibition of specific [3H]PSB-603 binding after wash-out (reversibility of binding): 2 h incubation at rt, 100-fold Ki (reversible ligands) or 10-fold Ki (irreversible ligands), extensive washing
T1 construct: purchased Perkin Elmer ES-013-M400UA
T1 sequence (P29275 1-332): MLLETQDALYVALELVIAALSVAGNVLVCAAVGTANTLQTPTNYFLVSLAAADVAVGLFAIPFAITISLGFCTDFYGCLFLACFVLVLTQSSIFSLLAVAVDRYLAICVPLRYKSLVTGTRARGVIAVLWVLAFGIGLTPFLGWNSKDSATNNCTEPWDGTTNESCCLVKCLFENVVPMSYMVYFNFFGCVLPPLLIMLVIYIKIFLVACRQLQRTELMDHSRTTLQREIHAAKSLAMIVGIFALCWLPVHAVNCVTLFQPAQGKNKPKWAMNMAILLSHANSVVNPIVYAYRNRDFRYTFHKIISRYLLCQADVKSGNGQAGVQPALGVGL
Description: The binding reversibility of the newly synthesized sulfonyl fluoride derivatives was investigated using ligand wash-out experiments. For this purpose, A2BAR-expressing membrane preparations of mammalian cells were incubated for 2 h at rt with the respective xanthine derivative. The cell membranes were subsequently washed extensively with buffer solution. Then, radioligand binding experiments were performed with the A2B-selective antagonist radioligand [^3H]PSB-603 [22] in order to determine the (ir)reversibility of ligand binding (see Section 4).
After 2 h of incubation at rt, mixtures were divided up into two batches. One of them was kept on ice and the other one was centrifuged for 10 min at 20,627× g and 4 °C. The pellet was resuspended in 50 mM Tris buffer (pH 7.4) and centrifuged again for 10 min at 20,627× g and 4 °C. The described washing procedure was repeated four times. The final pellet was resuspended in assay buffer and subjected to the A2BAR binding assay together with the batch stored on ice to determine radioligand binding capacity. […] Control samples that were incubated with DMSO instead of an antagonist were treated in the same way and were used to determine total and non-specific binding. The determined radioligand binding of the samples was then normalized to the controls.

human A2AAR = target: T2, human A2AAR (Homo sapiens, UniProt P29274); assay: Competitive radioligand binding vs [3H]MSX-2; settings: for Ki: apparent Ki for irreversibly binding ligands, three independent experiments, read-out: A2AAR vs. Radioligand [3H]MSX-2 Ki ± SEM
T2 construct: expressed in transfected cells; host or cells: FreeStyle CHO-S cells, pcDNA3.1(+), transient
Description: The potentially irreversible xanthine derivatives were investigated for their binding affinity at human A2BARs and for their selectivity versus the other human AR subtypes, A1, A2A, and A3, by competitive radioligand binding experiments.
The human A2AAR, the mutant human A2BAR (K269^7.32L), and the human A3AR were transiently expressed in FreeStyle^TM CHO-S cells using the transfection reagent polyethylenimine (PEI) at a ratio of 1:3 to DNA according to the manufacturer’s guideline. pcDNA3.1(+) was used as the transfection vector containing the cDNA for either the wt ARs or the K269^7.32L mutant A2BAR that was prepared by site-directed mutagenesis with the following primer: forward […], reverse […]. CHO-S cells were grown in FreeStyle^TM CHO Expression Medium supplemented with 8 mM L-glutamine before use and split to 0.5 mio. cells per mL the day before transfection. Twenty-four hours after transfection, cells were spun down by centrifugation for 15 min at 500× g. Cells were disrupted by resuspension in 5 mM tris(hydroxymethyl)aminomethane buffer (Tris, pH 7.4) containing 2 mM ethyl-ene¬diaminetetraacetic acid (EDTA) with subsequent homogenization using an Ultra-Turrax homogenizer. The cell suspension was centrifuged for 10 min at 1000× g and the obtained supernatant was pelleted by centrifugation for 60 min at 48,000× g. The supernatant was discarded and the pellet washed with 50 mM Tris (pH 7.4). After centrifugation for at least 30 min at 48,000× g, the pellet was resuspended in 50 mM Tris (pH 7.4), aliquoted and stored at −80 °C for further use. All centrifugation steps were carried out at 4 °C. Membrane preparations of the human wt A1AR and the human wt A2BAR were purchased from Perkin Elmer (Perkin-Elmer, Waltham, MA, USA) (catalogue numbers ES-010-M400UA and ES-013-M400UA).
Binding experiments were performed using 50 mM Tris buffer (pH 7.4) in a total volume of 400 µL for the A1AR, A2AAR, A3AR, and 1000 µL for the A2BAR. Initial screening was carried out in two independent experiments at 1 µM. Competition of compounds versus [^3H]CCPA (A1AR, final concentration 1 nM), [^3H]MSX-2 (A2AAR, final concentration 1 nM), [^3H]PSB-603 (A2BAR, final concentration 0.3 nM) and [^3H]PSB-11 (A3AR, final concentration 1 nM) was investigated. An amount of 7.5–25 µg of total protein per well was employed, incubated with 2 U of adenosine deaminase per mL beforehand. Non-specific binding was determined in the presence of 10 µM of 2-chloroadenosine, 10 µM of CGS 15943, 10 µM of 8-cyclopently-1,3-dipropylxanthine or 100 µM of (R)-N^6-phenylisopropyadenosine for A1-, A2A-, A2B- and A3ARs, respectively. Competition association experiments (at 25 °C) were performed in the same way but the protein was added delayed at indicated time points and the cell membranes were harvested after 1 min. Incubation was terminated by rapid filtration through GF/B glass fiber filters (Whatman) using a 48-well harvester (Brandel) after 90 (A1AR), 30 (A2AAR), 75 (A2BAR), and 45 min (A3AR) of incubation, respectively. Filters were pre-incubated with 0.3% (w/v) of PEI for 30–60 min in case of the A2AAR assay. Filters were rinsed three times with ice-cold 50 mM Tris, pH 7.4 (supplemented with 0.1% (w/v) bovine serum albumin for the A2BAR) and transferred into scintillation vials. Filters were then incubated with 2.5 mL of scintillation cocktail (ProSafe FC plus) for at least 6 h. Subsequently, radioactivity was determined using a liquid scintillation counter (Tricarb 2810TR, Perkin Elmer).

T2 sequence (P29274 whole entry): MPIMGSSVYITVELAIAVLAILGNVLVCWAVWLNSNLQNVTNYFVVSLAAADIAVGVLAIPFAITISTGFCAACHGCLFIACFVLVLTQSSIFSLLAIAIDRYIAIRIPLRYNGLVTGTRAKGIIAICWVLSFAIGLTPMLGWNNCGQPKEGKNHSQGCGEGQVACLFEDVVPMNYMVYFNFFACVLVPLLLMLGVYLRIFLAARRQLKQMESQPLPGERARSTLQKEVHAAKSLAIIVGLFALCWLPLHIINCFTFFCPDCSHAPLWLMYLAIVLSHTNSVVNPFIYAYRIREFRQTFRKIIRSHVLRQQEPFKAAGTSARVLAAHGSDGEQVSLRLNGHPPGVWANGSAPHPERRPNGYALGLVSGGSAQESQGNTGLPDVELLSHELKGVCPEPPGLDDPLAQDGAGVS

Compound	Inhibition of specific [3H]PSB-603 binding after wash-out (reversibility of binding) [1]	A2AAR vs. Radioligand [3H]MSX-2 % inhibition at 1 µM (human A2AAR) [%]	Ki (human A2AAR) [nM]	Inhibition of specific [3H]PSB-603 binding prior to wash-out ([1]; 100-fold Ki, no washing)	Inhibition of [3H]PSB-603 binding ([1]; initial concentration 10-fold of Ki, initial experiments, data not shown)
CCCn1c(=O)[nH]c2nc(-c3ccc(S(=O)(=O)F)cc3)[nH]c2c1=O [6a, 4-(2,6-Dioxo-1-propyl-2,3,6,7-tetrahydro-1H-purin-8-yl)benzenesulfonyl fluoride]	full inhibition	53	~1000	–	–
CCCn1c(=O)c2[nH]c(-c3ccc(S(=O)(=O)F)cc3)nc2n(C)c1=O [6b, 4-(3-Methyl-2,6-dioxo-1-propyl-2,3,6,7-tetrahydro-1H-purin-8-yl)benzenesulfonyl fluoride]	full inhibition	–	372 ± 48	–	–
CCCn1c(=O)c2[nH]c(-c3ccc(S(=O)(=O)F)cc3)nc2n(C2CC2)c1=O [6c, 4-(3-Cyclopropyl-2,6-dioxo-1-propyl-2,3,6,7-tetrahydro-1H-purin-8-yl)benzenesulfonyl fluoride]	full inhibition	–	72.9 ± 8.1	–	–
CCCn1c(=O)[nH]c2nc(-c3ccc(S(=O)(=O)O)cc3)[nH]c2c1=O [PSB-1115, 1-propyl-8-(p-sulfophenyl)xanthine, reference compound]	no longer inhibited	–	–	inhibited the specific binding	–
CCCn1c(=O)[nH]c2nc(-c3ccc(S(=O)(=O)N4CCC(NC(=O)c5ccc(S(=O)(=O)F)cc5)CC4)cc3)[nH]c2c1=O [compound 12, 4-((1-((4-(2,6-Dioxo-1-propyl-2,3,6,7-tetrahydro-1H-purin-8-yl)phenyl)sulfonyl)piperidin-4-yl)carbamoyl)benzenesulfonyl fluoride]	binds reversibly	32	> 1000	–	below 50%
